Drawing on patent publication US9932340B2, “Substituted indoles” (AbbVie Inc., priority 2014, dated 2018), this text covers IC50 for 35 molecules.

The target in the test is SUV420H1 enzyme (Homo sapiens, UniProt Q4FZB7). In words: TR-FRET SAH SUV420H1 enzyme inhibition assay. Type of test: biochemical. Conditions: Histone Peptide H4(8-30)me1 and SAM, overnight at room temp, TR-FRET detection of SAH, read-out: TR-FRET SAH_SUV420H1 IC50. A digest of the protocol: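 SUV420H1 (90 nM) preincubated 30 min with compound (3-fold dilutions, 50 to 0.00075 μM), then H4(8-30)me1 peptide 5 nM and SAM 4 nM added, overnight at room temp. SAH product detected by TR-FRET with Tb anti-SAH antibody and Oregon Green-SAH in RIPA buffer, 4 h; IC50 from Hill fit, asymptotes fixed 0-100%.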
Chain of SUV420H1 enzyme (Q4FZB7 whole entry): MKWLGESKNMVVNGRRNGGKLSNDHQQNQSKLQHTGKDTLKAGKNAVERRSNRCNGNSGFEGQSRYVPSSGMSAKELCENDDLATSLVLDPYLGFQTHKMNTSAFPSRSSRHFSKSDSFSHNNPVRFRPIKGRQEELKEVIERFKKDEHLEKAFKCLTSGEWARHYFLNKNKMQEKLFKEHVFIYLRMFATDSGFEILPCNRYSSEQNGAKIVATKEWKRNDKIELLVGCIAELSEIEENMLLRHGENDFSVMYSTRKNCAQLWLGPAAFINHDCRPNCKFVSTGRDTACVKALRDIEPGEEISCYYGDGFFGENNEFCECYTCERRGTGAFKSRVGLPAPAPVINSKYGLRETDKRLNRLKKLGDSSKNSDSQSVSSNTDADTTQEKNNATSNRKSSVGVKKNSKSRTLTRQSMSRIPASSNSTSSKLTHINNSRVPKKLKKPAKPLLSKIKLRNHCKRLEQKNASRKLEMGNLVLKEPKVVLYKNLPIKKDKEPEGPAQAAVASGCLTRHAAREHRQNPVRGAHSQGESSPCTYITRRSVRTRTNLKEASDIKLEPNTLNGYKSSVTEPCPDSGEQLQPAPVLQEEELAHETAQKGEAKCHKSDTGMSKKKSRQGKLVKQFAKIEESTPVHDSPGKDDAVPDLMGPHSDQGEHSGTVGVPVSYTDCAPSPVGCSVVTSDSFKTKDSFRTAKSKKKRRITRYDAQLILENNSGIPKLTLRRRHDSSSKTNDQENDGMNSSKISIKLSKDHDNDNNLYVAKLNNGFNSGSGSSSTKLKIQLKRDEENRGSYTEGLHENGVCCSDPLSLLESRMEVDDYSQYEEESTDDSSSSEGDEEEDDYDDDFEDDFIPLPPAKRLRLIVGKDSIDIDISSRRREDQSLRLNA
Background: In TR-FRET formats the signal depends on donor and acceptor labels being close together.
For the molecule `Cc1ccc(N)cc1C(=O)NCc1cc2cc(Cl)cc(Cn3cnc4c(N)ncnc43)c2[nH]1` [Example 271, 5-amino-N-({7-[(6-amino-9H-purin-9-yl)methyl]-5-chloro-1H-indol-2-yl}methyl)-2-methylbenzamide], the IC50 is 2.98 µM.

For `Nc1ncnc2c1ncn2Cc1cc(Cl)cc2cc(C(N)c3ccccc3)[nH]c12` (centres unmarked) [Example 194, 9-({2-[amino(phenyl)methyl]-5-chloro-1H-indol-7-yl}methyl)-9H-purin-6-amine], the IC50 stood at 1.95 µM.

As for `Nc1ncnc2c1ncn2Cc1cc(Cl)cc2cc(CNC(=O)CCc3ccccc3)[nH]c12` [Example 291, N-({7-[(6-amino-9H-purin-9-yl)methyl]-5-chloro-1H-indol-2-yl}methyl)-3-phenylpropanamide], the IC50 was 12.9 µM.

Regarding `Nc1ncnc2c1ncn2Cc1cc(Cl)cc2cc(CNC(=O)c3ccn[nH]3)[nH]c12` [Example 142, N-({7-[(6-amino-9H-purin-9-yl)methyl]-5-chloro-1H-indol-2-yl}methyl)-1H-pyrazole-5-carboxamide], the half-maximal inhibitory concentration (IC50) was determined as 9.48 µM.

In the case of `C=Cc1cc(Cn2cnc3c(N)ncnc32)c2[nH]c(CN)cc2c1` [Example 10, 9-{[2-(aminomethyl)-5-ethenyl-1H-indol-7-yl]methyl}-9H-purin-6-amine], the IC50 turned out to be 1.87 µM.

With `Cc1cccc(C(=O)NCc2cc3cc(Cl)cc(Cn4cnc5c(N)ncnc54)c3[nH]2)c1` [Example 247, N-({7-[(6-amino-9H-purin-9-yl)methyl]-5-chloro-1H-indol-2-yl}methyl)-3-methylbenzamide], the half-inhibitory concentration (IC50) was determined as 9.38 µM.

Regarding `C=Cc1ccc(Cn2cnc3c(N)ncnc32)c2[nH]c(CN)cc12` [Example 63, 9-{[2-(aminomethyl)-4-ethenyl-1H-indol-7-yl]methyl}-9H-purin-6-amine], the 50% inhibitory concentration (IC50) was 4.03 µM.

With `Cc1nc2cc(C(=O)NCc3cc4cc(Cl)cc(Cn5cnc6c(N)ncnc65)c4[nH]3)ccc2[nH]1` [Example 363, N-({7-[(6-amino-9H-purin-9-yl)methyl]-5-chloro-1H-indol-2-yl}methyl)-2-methyl-1H-benzimidazole-5-carboxamide], the 50% inhibitory concentration (IC50) was determined as 4.3 µM.

For `COc1ccsc1C(=O)NCc1cc2cc(Cl)cc(Cn3cnc4c(N)ncnc43)c2[nH]1` [Example 159, N-({7-[(6-amino-9H-purin-9-yl)methyl]-5-chloro-1H-indol-2-yl}methyl)-3-methoxythiophene-2-carboxamide], the half-maximal inhibitory concentration (IC50) was > 50 µM.

Turning to `COc1ccccc1CNCc1cc2cc(Cl)cc(Cn3cnc4c(N)ncnc43)c2[nH]1` [Example 250, 9-[(5-chloro-2-{[(2-methoxybenzyl)amino]methyl}-1H-indol-7-yl)methyl]-9H-purin-6-amine], the IC50 is 4.44 µM.

For the molecule `Nc1ncnc2c1ncn2Cc1cc(Cl)cc2cc(CNC(=O)C3CCOC3)[nH]c12` (centres unmarked) [Example 114, N-({7-[(6-amino-9H-purin-9-yl)methyl]-5-chloro-1H-indol-2-yl}methyl)tetrahydrofuran-3-carboxamide], the 50% inhibitory concentration (IC50) was 8.16 µM.

Turning to `Nc1ncnc2c1ncn2Cc1cc(Cl)cc2cc(CNC(=O)[C@@H]3CCC(=O)N3)[nH]c12` [Example 117, (2S)—N-({7-[(6-amino-9H-purin-9-yl)methyl]-5-chloro-1H-indol-2-yl}methyl)-5-oxopyrrolidine-2-carboxamide], the concentration for half-maximal inhibition (IC50) worked out at 14.1 µM.

In the case of `Nc1ncnc2c1ncn2Cc1cc(Cl)cc2cc(CNC(=O)c3ccc4[nH]ccc4n3)[nH]c12` [Example 343, N-({7-[(6-amino-9H-purin-9-yl)methyl]-5-chloro-1H-indol-2-yl}methyl)-1H-pyrrolo[3,2-b]pyridine-5-carboxamide], the half-maximal inhibitory concentration (IC50) was found to be 4.82 µM.

On to `CS(=O)(=O)Nc1ccc(-c2ccc(Cn3cnc4c(N)ncnc43)c3[nH]c(CN)cc23)cc1` [Example 85, N-(4-{2-(aminomethyl)-7-[(6-amino-9H-purin-9-yl)methyl]-1H-indol-4-yl}phenyl)methanesulfonamide], for which the IC50 turned out to be 0.605 µM.

As for `Cc1nc2ccc(C(=O)NCc3cc4cc(Cl)cc(Cn5cnc6c(N)ncnc65)c4[nH]3)cc2o1` [Example 359, N-({7-[(6-amino-9H-purin-9-yl)methyl]-5-chloro-1H-indol-2-yl}methyl)-2-methyl-1,3-benzoxazole-6-carboxamide], the IC50 was 4.28 µM.

Consider `Cc1noc(C)c1C(=O)NCc1cc2cc(-c3ccc(C(=O)N(C)C)cc3)cc(Cn3cnc4c(N)ncnc43)c2[nH]1` [Example 176, N-({7-[(6-amino-9H-purin-9-yl)methyl]-5-[4-(dimethylcarbamoyl)phenyl]-1H-indol-2-yl}methyl)-3,5-dimethyl-1,2-oxazole-4-carboxamide], for which the IC50 turned out to be 0.0875 µM.

As for `Cc1ccc(C(=O)NCc2cc3cc(Cl)cc(Cn4cnc5c(N)ncnc54)c3[nH]2)cc1` [Example 246, N-({7-[(6-amino-9H-purin-9-yl)methyl]-5-chloro-1H-indol-2-yl}methyl)-4-methylbenzamide], the IC50 was found to be 7.29 µM.

For `C=C(C)c1ccc(Cn2cnc3c(N)ncnc32)c2[nH]c(CN)cc12` [Example 65, 9-{[2-(aminomethyl)-4-(prop-1-en-2-yl)-1H-indol-7-yl]methyl}-9H-purin-6-amine], the half-maximal inhibitory concentration (IC50) is 5.08 µM.

`Cc1ccccc1-c1cc(Cn2cnc3c(N)ncnc32)c2[nH]c(CN)cc2c1` [Example 32, 9-{[2-(aminomethyl)-5-(2-methylphenyl)-1H-indol-7-yl]methyl}-9H-purin-6-amine]: the half-maximal inhibitory concentration (IC50) was determined as 3.33 µM.

With `Cn1cc(-c2cc(Cn3cnc4c(N)ncnc43)c3[nH]c(CN)cc3c2)cn1` [Example 18, 9-{[2-(aminomethyl)-5-(1-methyl-1H-pyrazol-4-yl)-1H-indol-7-yl]methyl}-9H-purin-6-amine], the half-maximal inhibitory concentration (IC50) was 0.561 µM.

On to `Cn1ccc2cc(C(=O)NCc3cc4cc(Cl)cc(Cn5cnc6c(N)ncnc65)c4[nH]3)ccc21` [Example 366, N-({7-[(6-amino-9H-purin-9-yl)methyl]-5-chloro-1H-indol-2-yl}methyl)-1-methyl-1H-indole-5-carboxamide], for which the 50% inhibitory concentration (IC50) turned out to be 2.87 µM.

Regarding `Nc1ncnc2c1ncn2Cc1cc(Cl)cc2cc(CNC(=O)Cc3cccnc3)[nH]c12` [Example 231, N-({7-[(6-amino-9H-purin-9-yl)methyl]-5-chloro-1H-indol-2-yl}methyl)-2-(pyridin-3-yl)acetamide], the concentration for half-maximal inhibition (IC50) is 2.48 µM.

On to `COc1ccccc1-c1ccc(Cn2cnc3c(N)ncnc32)c2[nH]c(CN)cc12` [Example 80, 9-{[2-(aminomethyl)-4-(2-methoxyphenyl)-1H-indol-7-yl]methyl}-9H-purin-6-amine], for which the IC50 turned out to be 1.85 µM.

In the case of `Nc1ncnc2c1ncn2Cc1cc(Cl)cc2cc(CNC(=O)c3cccc(O)n3)[nH]c12` [Example 197, N-({7-[(6-amino-9H-purin-9-yl)methyl]-5-chloro-1H-indol-2-yl}methyl)-6-hydroxypyridine-2-carboxamide], the half-maximal inhibitory concentration (IC50) was 1.07 µM.

As to `N#Cc1ccc(C(=O)NCc2cc3cc(C4=CCNCC4)cc(Cn4cnc5c(N)ncnc54)c3[nH]2)c(Cl)c1` [Example 277, N-({7-[(6-amino-9H-purin-9-yl)methyl]-5-(1,2,3,6-tetrahydropyridin-4-yl)-1H-indol-2-yl}methyl)-2-chloro-4-cyanobenzamide], the IC50 was determined as 0.0351 µM.

As to `CC(=O)N1CCC=C(c2cc(Cn3cnc4c(N)ncnc43)c3[nH]c(CNC(=O)c4ccc(C#N)cc4Cl)cc3c2)C1` [Example 280], the IC50 is 0.0419 µM.

As to `N#Cc1ccc(C(=O)NCc2cc3cc(Cl)cc(Cn4cnc5c(N)ncnc54)c3[nH]2)c(F)c1` [Example 284, N-({7-[(6-amino-9H-purin-9-yl)methyl]-5-chloro-1H-indol-2-yl}methyl)-4-cyano-2-fluorobenzamide], the IC50 stood at 0.0908 µM.

For the molecule `NCc1cc2cc(C3=CCOCC3)cc(Cn3cnc4c(N)ncnc43)c2[nH]1` [Example 12, 9-{[2-(aminomethyl)-5-(3,6-dihydro-2H-pyran-4-yl)-1H-indol-7-yl]methyl}-9H-purin-6-amine], the IC50 worked out at 0.334 µM.

`Nc1ncnc2c1ncn2Cc1cc(Cl)cc2cc(CNC(=O)c3ccc4ocnc4c3)[nH]c12` [Example 339, N-({7-[(6-amino-9H-purin-9-yl)methyl]-5-chloro-1H-indol-2-yl}methyl)-1,3-benzoxazole-5-carboxamide]: the IC50 is 6.87 µM.

For `N#Cc1cccc(C(=O)NCc2cc3cc(Cl)cc(Cn4cnc5c(N)ncnc54)c3[nH]2)c1` [Example 273, N-({7-[(6-amino-9H-purin-9-yl)methyl]-5-chloro-1H-indol-2-yl}methyl)-3-cyanobenzamide], the IC50 was found to be 1.5 µM.

Take `Nc1ncnc2c1ncn2Cc1cc(Cl)cc2cc(CNC(=O)C3(O)CCC3)[nH]c12` [Example 112, N-({7-[(6-amino-9H-purin-9-yl)methyl]-5-chloro-1H-indol-2-yl}methyl)-1-hydroxycyclobutanecarboxamide]: the IC50 turned out to be 32 µM.

On to `Cc1noc(C)c1C(=O)NCc1cc2cc(-c3cccc(N4CCOCC4)c3)cc(Cn3cnc4c(N)ncnc43)c2[nH]1` [Example 179, N-({7-[(6-amino-9H-purin-9-yl)methyl]-5-[3-(morpholin-4-yl)phenyl]-1H-indol-2-yl}methyl)-3,5-dimethyl-1,2-oxazole-4-carboxamide], for which the IC50 worked out at 0.365 µM.

With `NCc1cc2cc(C3=CCCC3)cc(Cn3cnc4c(N)ncnc43)c2[nH]1` [Example 11, 9-{[2-(aminomethyl)-5-(cyclopent-1-en-1-yl)-1H-indol-7-yl]methyl}-9H-purin-6-amine], the IC50 came out at 0.178 µM.

For the molecule `Cc1ccccc1-c1ccc(Cn2cnc3c(N)ncnc32)c2[nH]c(CN)cc12` [Example 77, 9-{[2-(aminomethyl)-4-(2-methylphenyl)-1H-indol-7-yl]methyl}-9H-purin-6-amine], the IC50 amounted to 2.63 µM.

As to `CCc1nc2ccc(C(=O)NCc3cc4cc(Cl)cc(Cn5cnc6c(N)ncnc65)c4[nH]3)cc2[nH]1` [Example 368, N-({7-[(6-amino-9H-purin-9-yl)methyl]-5-chloro-1H-indol-2-yl}methyl)-2-ethyl-1H-benzimidazole-6-carboxamide], the IC50 amounted to 7.61 µM.

The term IC50 denotes the point on the concentration scale where inhibition reaches its midpoint.
